According to BindingDB's records for doi:10.1021/bi9005896 (Albert Einstein College of Medicine, 2009):

Target: T1, Purine nucleoside phosphorylase (Homo sapiens, UniProt P00491)
T1 sequence (P00491 whole entry): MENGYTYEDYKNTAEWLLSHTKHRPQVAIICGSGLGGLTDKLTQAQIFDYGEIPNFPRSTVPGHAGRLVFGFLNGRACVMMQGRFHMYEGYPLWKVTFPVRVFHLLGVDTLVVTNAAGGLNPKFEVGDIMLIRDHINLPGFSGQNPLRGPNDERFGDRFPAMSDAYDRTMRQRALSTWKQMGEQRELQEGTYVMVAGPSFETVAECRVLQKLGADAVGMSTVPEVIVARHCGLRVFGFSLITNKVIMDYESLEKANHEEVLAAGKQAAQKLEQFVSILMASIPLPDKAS
Assay: Inhibtion Assay
Text: Inhibition assay using human PNP.

O=c1[nH]cnc2c(CN3CCC(O)C3)c[nH]c12 (stereo unspecified) [Immucillins, 11]
Kd: 383 pM
